Results as given in publication PMC12084062, “Integrating in vitro and in silico approaches for exploring antidiabetic potential of dimethyl and thiomethyl indolinone derivatives” (PLOS One, 2025).
In brackets after ≈: the same amount, converted by molar mass. Several values for one entry are separate records, joined by “and”; a condition that tells them apart may be missing. Equal values may be shown once.

Assays:
Format in all cases: biochemical
protein glycation = test: Protein glycation assay; details: in vitro
Procedure: Briefly, 50 µl of protein solution in distil water was added to 10 µl of glyceraldehyde solution in black microplates. The plates were sealed and incubated at 37 °C for 24 h. After incubation, test compound solutions were then added. Blank containing distilled water served as a negative control (untreated), while Rutin as a positive control. The fluorescence was measured at 370 nm (excitation), and 440 nm (emission). The percentage inhibition was calculated using the following formula:
Percentinhibition=1−fluorescenceoftestwell/fluoresecenceofnegativecontrolx100

α-amylase = test: In vitro α-amylase inhibition; details: for maximum inhibition of α-amylase: at 1000 μg/mL; for IC50 against α-amylase: in vitro
Procedure: The standard protocol of in vitro α-amylase inhibition was performed according to Naeem et al. 70 µL of a 50 mM phosphate buffer (pH 6.0) were combined with 100 µL of the reaction solution. […] (0.057 units) of an enzyme, and 50 µL of the compound being examined was added to the solution. After being thoroughly blended, a 10-minute pre-incubation at 25 °C was carried out. The absorbance of the resulting mixture was measured at a wavelength of 400 nm. Further, a solution equal to 10 µL a 0.5 mM concentration of p-nitrophenyl glucopyranoside was added to the solution, and re-incubation carried out at a 25 °C temperature. The absorbance of the solution was measured at a wavelength of 400 nm after incubation.

[1] = biological target: human recombinant DPP-IV enzyme (Homo sapiens, UniProt P27487); test: DPP-IV inhibition assay; details: in vitro; read-out: IC50 against DPP-IV (converted)
Procedure: The assay was carried out according to the established method with slight modification. Various concentrations of the synthesized compounds were added to human recombinant DPP-IV enzyme solution in respective wells of a 96-well plate. After incubation, pNA substrate (Gly-Pro-pNA) dissolved in Tris buffer was added to initiate the reaction and further incubated. After incubation, acetic acid solution was added to stop the reaction and the absorbance was recorded. The percentage inhibition was calculated by using the following equation:
Percentinhibition=1−(absorbanceofthetestwell/absorbanceoftheuntreatedcontrol)x100

Row | Compound | IC50 against protein glycation (protein glycation) | maximum inhibition of α-amylase (α-amylase) | IC50 against α-amylase (α-amylase) | IC50 [1]
1 | C[C@@H]1O[C@@H](OC[C@H]2O[C@@H](Oc3c(-c4ccc(O)c(O)c4)oc4cc(O)cc(O)c4c3=O)[C@H](O)[C@@H](O)[C@@H]2O)[C@H](O)[C@H](O)[C@H]1O [Rutin, reference compound] | 20.780 µg/mL (≈ 34 µM) | – | – | –
2 | Cc1ccc(/C=C2/C(=O)Nc3cc(Cl)ccc32)c(C)c1 [Compound 1, (E)-3-(2,4-Dimethylbenzylidene)-6-chloroindolin-2-one] | 210.592 µg/mL (≈ 742 µM) | 80% | 32.917 µg/mL (≈ 116 µM) | 110 µM
3 | CSc1ccc(/C=C2/C(=O)Nc3cc(Cl)ccc32)cc1 [Compound 2, (E)-3-(4-(Methylthio)benzylidene)-6-chloroindolin-2-one] | 341.551 µg/mL (≈ 1130 µM) | 75% | 42.691 µg/mL and 42.69 µg/mL | 156 µM
